The results in this text go back to patent publication US20220008450A1, “ANTI-HEPATITIS B VIRUS AGENT” (DAIKIN INDUSTRIES, LTD., priority 2018, published 2022).

SMILES strings stand for the structures. pEC50: −log10 of the molar value.

In data set [1] the test system is HBV. As to the kind of experiment: Anti-HBV activity: intracellular HBV DNA by quantitative PCR in HepG2.2.15 cells. It is filed as cell-based, hepatitis B virus. The following applies: for pEC50: Hepatitis B virus, 168 h, HepG2.2.15 cells, intracellular HBV DNA, day 7 after addition, read-out: EC50 (50% effective concentration), anti-HBV activity. On the procedure: Anti-HBV activity was evaluated by quantitative PCR for determining the amount of HBV DNA in cells on the seventh day after the addition of the agent, using the HepG2.2.15 cell line of HBV-producing cells obtained by introducing a gene having a length twice that of the HBV genome into the human liver cancer cell line HepG2. For PCR of HBV DNA, a forward primer (HBV-S190F; 5′-GCT CGT GTT ACA GGC GGG-3′: SEQ ID NO: 1) and a reverse primer (HBV-S703R; 5′-GAACCACTGAACAAATGGCACTAGTA-3′: SEQ ID NO: 2) were used. PCR was performed by carrying out a reaction at 95° C. for 10 sec, 62° C. for 10 sec, and 72° C. for 30 sec for 35 cycles.
Specifically, HepG2.2.15 cells were seeded at a concentration of 1×10^5 cells/well. 24 hours later, the compounds of Example 1 and Comparative Example 1 were diluted to have a concentration of 0, 0.49, 0.97, 1.95, 3.90, 7.81, 15.6, 31.3, 62.5, 125, 250, 500, and 1000 nM; and added to the cells. After the cells were cultured for 7 days, each cytoplasmic compartment was collected, and DNA was purified by phenol-chloroform extraction. 20 ng of the purified DNA was used to measure the amount of intracellular HBV DNA by quantitative PCR.
The EC50 (50% effective concentration) was calculated from a graph showing the relationship between the concentration of the compound and anti-HBV activity.

The subject of data set [2] is HBs antigen. In words: HBs antigen level in HepG2.2.15 culture supernatant by CLIA. It is filed as cell-based, hepatitis B virus. As to conditions: day 4 after addition, compared to Entecavir and Tenofovir disoproxil fumarate (FIG. 2). On the procedure:
The HBs antigen level was measured by measuring the culture supernatant on the fourth day after the addition of the agent by chemiluminescent immunoassay (CLIA) using HepG2.2.15, i.e., HBV-producing cells obtained by introducing a gene having a length twice that of the HBV genome into the human liver cancer cell line HepG2.

A short description of data set [3]: Cytotoxicity test (WST-1) in HepG2 NTCP-myc cells. The following applies: human, 7 days culture, read-out: CC50 (50% cytotoxic concentration). Type of data set: cell-based. As to the method: HepG2 NTCP-myc cells were seeded at a concentration of 2×10^4 cells/well. 24 hours later, agents were diluted to have a concentration of 0, 0.49, 0.97, 1.95, 3.90, 7.81, 15.6, 31.3, 62.5, 125, 250, 500, and 1000 nM; and added to the cells. The HepG2 NTCP-myc cells were cultured for 7 days. After the culture, 10 μl of Premix WST-1 Cell Proliferation Assay System (TaKaRa) was added, and the cells were cultured at 37° C. for 2 hours. Thereafter, absorbance was determined at 450 nm using a microplate reader.
The CC50 (50% cytotoxic concentration) was calculated from a graph showing the relationship between the concentration of the compound and cytotoxicity.
(In general: Tetrazolium dyes change colour on reduction, which living cells bring about.)

As to `OC[C@H]1O[C@@H](n2cnc3c(Cl)nc(Cl)nc32)[C@@H](F)[C@@H]1O` [Comparative Example 1, 2,6-dichloro-9-((2R,3S,4R,5R)-3-fluoro-4-hydroxy-5-(hydroxymethyl)tetrahydrofuran-2-yl)-9H-purine, reference compound], the pEC50 in data set [1] is < 5.00.

Regarding `Nc1nc(F)nc2c1ncn2[C@@H]1O[C@H](CO)C(O)C1F` (stereo partly drawn) [Example 1, 2′-deoxy-2′-fluoro-β-2-fluoro-D-adenosine], the “SI (CC50/EC50)” value in data set [1] (CC50 (HepG2 NTCP-myc) divided by EC50 (HepG2.2.15)) came to 213411. For the same compound, in data set [1], the pEC50 was 8.80. Moreover, the “HBs antigen level (relative amount of extracellular HBs antigen)” value in data set [2] is given as “remarkably reduced”. The CC50 at 7 days in data set [3] turned out to be 337 µM.
